The values that follow come from US8048893B2, “Pyrazolyl derivatives, preparation process and intermediates of this process as medicinal products and pharmaceutical compositions containing them” (Aventis Pharma SA, priority 2003, dated 2011).

Turning to `CS(=O)(=O)Nc1nn(CCN2CCCCC2)cc1-c1ccccc1` [Example 25, N-[4-Phenyl-1-(2-piperidin-1-ylethyl)-1H-pyrazol-3-yl]-methanesulfonamide], the melting point (usually the temperature of the solid-liquid transition) is 121 °C. `CC(Cn1cc(-c2ccccc2)c(O)n1)N(C)C.Cl.Cl` (stereo not shown) gave a melting point of 189 °C.

Regarding `Cc1c(-c2ccccc2)c(O)nn1CCN1CCCCC1.Cl.Cl`, the melting point came to 222 °C. Consider `CN1CCCC(Cn2cc(-c3ccccc3)c(O)n2)C1` (stereo not shown) [Example 27, 1-(1-Methylpiperidin-3-ylmethyl)-4-phenyl-1H-pyrazol-3-ol], for which the melting point was determined as 132 °C. Consider `Cl.Cl.Oc1nn(CCN2CCCCCC2)cc1-c1ccccc1`, for which the melting point is 228 °C (dec.).

Turning to `NC(=O)c1ccccc1-c1cnn(CCN2CCCCC2)c1` [Example 72, 2-[1-(2-Piperidin-1-ylethyl)-1H-pyrazol-4-yl]benzamide], the melting point turned out to be 168 °C.

In the case of `Cl.Cl.Oc1nn(CCN2CC3CCC2C3)cc1-c1ccccc1` (stereo not shown), the melting point was 173 °C (dec.).
